Experimental data published in patent US10087469B2, “Method of producing sugar solution, sugar solution, and method of producing ethanol” (Toray Industries, Inc., priority 2012, dated 2018).

Test system: Pichia stipitis NBRC1687 strain
Assay: Growth test of Pichia stipitis using model sugar solution (YPDX medium with additive)
Assay type: cell-based
Set-up: Xylose concentration in the medium / Glucose concentration in the medium: unit not given here
Settings: for growth inhibitory effect compared with coumaric acid: particularly in consumption rate of glucose
Procedure: In main culture of “A. Growth Test of Pichia Stipitis using Model Sugar solution” described below, any one of coumaramide, coumaric acid, and ferulamide was added in a concentration of 2 ppm to 200 ppm as an additive in a medium, and the medium was subjected to a growth test. As a positive control, a YPDX medium free of an additive was subjected to the same test.
A. Growth Test of Pichia Stipitis Using Model Sugar Solution
A Pichia stipitis NBRC1687 strain was statically cultured at 25° C. in a YPDX agar medium produced by adding 2% agar to a YPDX medium shown in Table 3 below (prepreculture). One of colonies formed on the agar medium was inoculated into 10 mL of the YPDX medium with a platinum loop, and cultured at 25° C. and 120 spm in a test tube with a volume of 20 mL for 48 hours under shaking (preculture). One mL of medium after the preculture was added to 9 mL of YPDX medium, and culture was further continued at 25° C. and 60 spm in a test tube with a volume of 20 mL (main culture). 0, 24, and 48 hours after initiation of the culture, sampling was performed, the monosaccharide concentration and the absorbance (OD660) were measured. Thus, growth of fungus bodies was observed.

[1] = additive 2 ppm, 0 h of main culture
[2] = additive 2 ppm, 24 h of main culture
[3] = additive 2 ppm, 48 h of main culture
[4] = additive 20 ppm, 0 h of main culture
[5] = additive 20 ppm, 24 h of main culture
[6] = additive 20 ppm, 48 h of main culture
[7] = additive 200 ppm, 0 h of main culture
[8] = additive 200 ppm, 24 h of main culture
[9] = additive 200 ppm, 48 h of main culture

Structure (SMILES)	fermentation inhibitor in the culture of Pichia stipitis	Glucose concentration in the medium [1]	Xylose concentration in the medium [1]	Glucose concentration in the medium [2]	Xylose concentration in the medium [2]	Glucose concentration in the medium [3]	Xylose concentration in the medium [3]	Glucose concentration in the medium [4]	Xylose concentration in the medium [4]	Glucose concentration in the medium [5]	Xylose concentration in the medium [5]	Glucose concentration in the medium [6]	Xylose concentration in the medium [6]	Glucose concentration in the medium [7]	Xylose concentration in the medium [7]	Glucose concentration in the medium [8]	Xylose concentration in the medium [8]	Glucose concentration in the medium [9]	Xylose concentration in the medium [9]	growth inhibitory effect compared with coumaric acid
NC(=O)/C=C/c1ccc(O)cc1 [Coumaramide, coumaramide]	fermentation inhibitors	10	10	2.3	2.3	0	0	10	10	4.82	9.7	0	0	10	10	5.9	9.5	0	0.4	superior to coumaric acid in growth inhibitory
O=C(O)/C=C/c1ccc(O)cc1 [Coumaric Acid, coumaric acid]	–	10	10	2.6	2.6	0	0	10	10	2.6	8.7	0	0	10	10	3.6	9.2	0	0	–
COc1cc(/C=C/C(N)=O)ccc1O [Ferulamide, ferulamide]	fermentation inhibitors	10	10	2.3	2.3	0	0	10	10	6.6	9.3	0	0	10	10	6.7	9.7	0	5.2	superior to coumaric acid in growth inhibitory
